Source: patent US9695155B2, “Herbicidal substituted pyrimidinyloxy benzene compounds” (E. I. DU PONT DE NEMOURS AND COMPANY, priority 2013, dated 2017)

How the values were obtained:
kochia = experiment: Test C postemergence; type: in vivo, Kochia scoparia
How it was run: (§1)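 Greenhouse herbicide screen. Pre: seeded loam/sand, sprayed at planting. Post: 1–4 leaf plants (2–18 cm) in peat-based mix. Formulation: solvent mixture + surfactant, non-phytotoxic. Readout: visual % control vs untreated, 13–15 d; dash = not tested.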

corn = experiment: Test A preemergence; type: in vivo, Zea mays; conditions: 0 to 100 scale where 0 is no effect and 100 is complete control
How it was run: (§2)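 Compounds in non-phytotoxic solvent with surfactant applied as soil spray preemergence, or postemergence to plants 2-10 cm at one- to two-leaf stage, in loam/sand. After approximately 10 days in greenhouse, injury rated visually versus untreated controls, 0 (no effect) to 100 (complete control).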

johnsongrass = experiment: Test C preemergence; type: in vivo, Sorghum halepense; conditions: preemergence
How it was run: as §1

large (Lg) crabgrass [1] = experiment: Test C preemergence; type: in vivo, Digitaria sanguinalis
How it was run: as §1

wild oat = experiment: Test C postemergence; type: in vivo, Avena fatua; conditions: for Oat, Wild plant response rating: 31 g ai/ha, 13 to 15 days
How it was run: as §1

lambsquarters = experiment: Test C preemergence; type: in vivo, Chenopodium album; conditions: preemergence
How it was run: as §1

wheat, winter = experiment: Test C postemergence; type: in vivo, Triticum aestivum; conditions: for Wheat plant response rating: 31 g ai/ha, 13 to 15 days
How it was run: as §1

ragweed = experiment: Test C postemergence; type: in vivo, Ambrosia elatior; conditions: for Ragweed plant response rating: 31 g ai/ha, 13 to 15 days
How it was run: as §1

rice = experiment: Test B flooded paddy test; type: in vivo, Oryza sativa; conditions: Flood, 250 g ai/ha, 0 to 100 scale where 0 is no effect and 100 is complete control
How it was run: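 Visual ratings on a 0 to 100 scale, where 100 means complete control, compared treated plants with controls after 13 to 15 days in a greenhouse. Treatment went into paddy water 3 cm deep over the soil, applied to plants at the 2-leaf stage.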

large (Lg) crabgrass [2] = experiment: Test A preemergence; type: in vivo, Digitaria sanguinalis; conditions: 0 to 100 scale where 0 is no effect and 100 is complete control
How it was run: as §2

[3] = postemergence, visual rating, scale 0 to 100 (0 no effect, 100 complete control)
[4] = 16 g ai/ha, postemergence, 0 is no effect, 100 is complete control
[5] = 125 g ai/ha, postemergence, visual rating, scale 0 to 100 (0 no effect, 100 complete control)
[6] = Postemergence, 62 g ai/ha, scale 0 to 100 (0 no effect, 100 complete control)
[7] = 16 g ai/ha, scale 0 to 100 (0 no effect, 100 complete control)
[8] = 62 g ai/ha, scale 0 (no effect) to 100 (complete control)
[9] = 125 g ai/ha, scale 0 (no effect) to 100 (complete control)

`FC(F)(F)c1cn(-c2ccccc2Oc2ncc(Cl)cn2)nn1` [Compound 166, 5-chloro-2-[2-[4-(trifluoromethyl)-1H-1,2,3-triazol-1-yl]phenoxy]pyrimidine] was tested, and the pest or weed control at 16 g/ha (kochia; Bassia scoparia, post-emergence, 16 g ai/ha, postemergence, 0 is no effect, 100 is complete control, read-out: Plant response rating (0 to 100), Kochia) was 90%, the pest or weed control at 31 g/ha (kochia; Bassia scoparia, post-emergence, 31 g ai/ha, postemergence, visual rating, scale 0 to 100 (0 no effect, 100 complete control), 13 to 15 days, read-out: Kochia plant response rating) was 90% and the pest or weed control at 125 g/ha (kochia; Bassia scoparia, post-emergence, 125 g ai/ha, postemergence, visual rating, scale 0 to 100 (0 no effect, 100 complete control), read-out: Plant response rating, Kochia) was 100%. It also gave a pest or weed control at 62 g/ha (kochia; Bassia scoparia, post-emergence, Postemergence, 62 g ai/ha, scale 0 to 100 (0 no effect, 100 complete control), read-out: Plant response rating, Kochia) of 90%, a Corn plant response rating (crop injury, 0 = no effect, 100 = complete kill) at 125 g/ha (corn; Zea mays, pre-emergence, 240 h, 125 g ai/ha) of 30% and a plant injury at 500 g/ha (corn; Zea mays, pre-emergence, 240 h, 500 g ai/ha, read-out: Corn plant response rating) of 30%. The pest or weed control at 16 g/ha (johnsongrass; Sorghum halepense, pre-emergence, 16 g ai/ha, scale 0 to 100 (0 no effect, 100 complete control), read-out: Johnsongrass plant response rating) was 5%, the pest or weed control at 62 g/ha (johnsongrass; Sorghum halepense, pre-emergence, 62 g ai/ha, scale 0 (no effect) to 100 (complete control), read-out: Johnsongrass plant response rating) was 85% and the pest or weed control at 125 g/ha (johnsongrass; Sorghum halepense, pre-emergence, 125 g ai/ha, scale 0 (no effect) to 100 (complete control), read-out: Johnsongrass plant response rating) was 95%. It also gave a pest or weed control at 16 g/ha (large (Lg) crabgrass [1]; Digitaria sanguinalis, pre-emergence, 16 g ai/ha, preemergence, scale 0 to 100 (0 no effect, 100 complete control), read-out: Crabgrass, Large plant response rating) of 100%, a pest or weed control at 62 g/ha (large (Lg) crabgrass [1]; Digitaria sanguinalis, pre-emergence, 62 g ai/ha, preemergence, scale 0 (no effect) to 100 (complete control), read-out: Crabgrass, Large plant response rating) of 100% and a pest or weed control at 125 g/ha (large (Lg) crabgrass [1]; Digitaria sanguinalis, pre-emergence, 125 g ai/ha, preemergence, scale 0 (no effect) to 100 (complete control), read-out: Crabgrass, Large plant response rating) of 100%. For the same compound, the pest or weed control at 31 g/ha (large (Lg) crabgrass [1]; Digitaria sanguinalis, pre-emergence, Preemergence, 31 g ai/ha, scale 0 to 100, 0 no effect, 100 complete control, read-out: Plant response rating, Crabgrass, Large) was 100%, the “Oat, Wild plant response rating” value (wild oat; [3]) was 10 and the pest or weed control at 16 g/ha (wild oat; Avena fatua, post-emergence, 16 g ai/ha, postemergence, 0 is no effect, 100 is complete control, read-out: Plant response rating (0 to 100), Oat, Wild) was 5%. It also gave a pest or weed control at 125 g/ha (wild oat; Avena fatua, post-emergence, 125 g ai/ha, postemergence, visual rating, scale 0 to 100 (0 no effect, 100 complete control), read-out: Plant response rating, Oat, Wild) of 50%, a pest or weed control at 62 g/ha (wild oat; Avena fatua, post-emergence, Postemergence, 62 g ai/ha, scale 0 to 100 (0 no effect, 100 complete control), read-out: Plant response rating, Oat, Wild) of 35% and a pest or weed control at 16 g/ha (lambsquarters; Chenopodium album, pre-emergence, 16 g ai/ha, scale 0 to 100 (0 no effect, 100 complete control), read-out: Lambsquarters plant response rating) of 90%. For the same compound, the pest or weed control at 62 g/ha (lambsquarters; Chenopodium album, pre-emergence, 62 g ai/ha, scale 0 (no effect) to 100 (complete control), read-out: Lambsquarters plant response rating) was 98%, the pest or weed control at 125 g/ha (lambsquarters; Chenopodium album, pre-emergence, 125 g ai/ha, scale 0 (no effect) to 100 (complete control), read-out: Lambsquarters plant response rating) was 98% and the “Wheat plant response rating” value (wheat, winter; [3]) was 5. The plant injury at 16 g/ha (wheat, winter; Triticum aestivum, post-emergence, 16 g ai/ha, postemergence, 0 is no effect, 100 is complete control, read-out: Plant response rating (0 to 100), Wheat) was 5%, the plant injury at 125 g/ha (wheat, winter; Triticum aestivum, post-emergence, 125 g ai/ha, postemergence, visual rating, scale 0 to 100 (0 no effect, 100 complete control), read-out: Plant response rating, Wheat) was 20% and the plant injury at 62 g/ha (wheat, winter; Triticum aestivum, post-emergence, Postemergence, 62 g ai/ha, scale 0 to 100 (0 no effect, 100 complete control), read-out: Plant response rating, Wheat) was 35%. The “Ragweed plant response rating” value (ragweed; [3]) was 45, the pest or weed control at 16 g/ha (ragweed; Ambrosia artemisiifolia, post-emergence, 16 g ai/ha, postemergence, 0 is no effect, 100 is complete control, read-out: Plant response rating (0 to 100), Ragweed) was 35% and the pest or weed control at 125 g/ha (ragweed; Ambrosia artemisiifolia, post-emergence, 125 g ai/ha, postemergence, visual rating, scale 0 to 100 (0 no effect, 100 complete control), read-out: Plant response rating, Ragweed) was 80%. The pest or weed control at 62 g/ha (ragweed; Ambrosia artemisiifolia, post-emergence, Postemergence, 62 g ai/ha, scale 0 to 100 (0 no effect, 100 complete control), read-out: Plant response rating, Ragweed) was 60%, the plant injury at 250 g/ha (rice; Oryza sativa, read-out: Plant response rating, Rice) was 75% and the pest or weed control at 125 g/ha (large (Lg) crabgrass [2]; Digitaria sanguinalis, pre-emergence, 240 h, 125 g ai/ha, read-out: Plant response rating, Crabgrass, Large) was 100%. It also gave a pest or weed control at 500 g/ha (large (Lg) crabgrass [2]; Digitaria sanguinalis, pre-emergence, 240 h, 500 g ai/ha, read-out: Crabgrass, Large plant response rating) of 100%.
`FC(F)(F)c1cnn(-c2c(Cl)cccc2Oc2ncc(Cl)cn2)c1` [Compound 167] was tested, and the “Plant response rating (0 to 100), Kochia” value (kochia; [4]) was 90, the “Kochia plant response rating” value (kochia; 31 g ai/ha, postemergence, visual rating, scale 0 to 100 (0 no effect, 100 complete control), 13 to 15 days) was 90 and the “Plant response rating, Kochia” value (kochia; [5]) was 95. For the same compound, the “Plant response rating, Kochia” value (kochia; [6]) was 90, the “Plant response rating, Corn” value (corn; 125 g ai/ha) was 10 and the “Corn plant response rating” value (corn; 500 g ai/ha) was 40. For the same compound, the “Johnsongrass plant response rating” value (johnsongrass; [7]) was 5, the “Johnsongrass plant response rating” value (johnsongrass; [8]) was 80 and the “Johnsongrass plant response rating” value (johnsongrass; [9]) was 95. For the same compound, the “Crabgrass, Large plant response rating” value (large (Lg) crabgrass [1]; 16 g ai/ha, preemergence, scale 0 to 100 (0 no effect, 100 complete control)) was 75, the “Crabgrass, Large plant response rating” value (large (Lg) crabgrass [1]; 62 g ai/ha, preemergence, scale 0 (no effect) to 100 (complete control)) was 100 and the “Crabgrass, Large plant response rating” value (large (Lg) crabgrass [1]; 125 g ai/ha, preemergence, scale 0 (no effect) to 100 (complete control)) was 100. The “Plant response rating, Crabgrass, Large” value (large (Lg) crabgrass [1]; Preemergence, 31 g ai/ha, scale 0 to 100, 0 no effect, 100 complete control) was 98, the “Plant response rating (0 to 100), Oat, Wild” value (wild oat; [4]) was 5 and the “Oat, Wild plant response rating” value (wild oat; [3]) was 25. For the same compound, the “Plant response rating, Oat, Wild” value (wild oat; [5]) was 35, the “Plant response rating, Oat, Wild” value (wild oat; [6]) was 35 and the “Lambsquarters plant response rating” value (lambsquarters; [7]) was 75. The “Lambsquarters plant response rating” value (lambsquarters; [8]) was 100, the “Lambsquarters plant response rating” value (lambsquarters; [9]) was 100 and the “Plant response rating (0 to 100), Wheat” value (wheat, winter; [4]) was 0. For the same compound, the “Wheat plant response rating” value (wheat, winter; [3]) was 0, the “Plant response rating, Wheat” value (wheat, winter; [5]) was 5 and the “Plant response rating, Wheat” value (wheat, winter; [6]) was 5. The “Plant response rating (0 to 100), Ragweed” value (ragweed; [4]) was 10, the “Ragweed plant response rating” value (ragweed; [3]) was 10 and the “Plant response rating, Ragweed” value (ragweed; [5]) was 55. For the same compound, the “Plant response rating, Ragweed” value (ragweed; [6]) was 30, the “Plant response rating, Rice” value (rice) was 0 and the “Plant response rating, Crabgrass, Large” value (large (Lg) crabgrass [2]; 125 g ai/ha) was 100. For the same compound, the “Crabgrass, Large plant response rating” value (large (Lg) crabgrass [2]; 500 g ai/ha) was 100.
